Laboratory results: patent US10913727B2, “Modulators of the integrated stress pathway” (Calico Life Sciences LLC, priority 2016, dated 2021)

Tested on: HEK293T cells carrying the ATF4 luciferase reporter
Experiment: ATF4-Luc assay, in vitro model of Vanishing Cell White Matter Disease (VWMD)
Type: cell-based
Conditions: Homo sapiens, HEK-293T, 1 μg/mL tunicamycin, 7 hours, One Glo luminescence
How it was run: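 Stable HEK293T line with human ATF4 5′-UTR–firefly luciferase reporter treated with 1 μg/mL tunicamycin plus 200 nM compound for 7 h. Luminescence read; EC50 derived.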

Structure (SMILES) | EC50 [µM]
Cc1scnc1C(=O)NC12CC(NC(=O)COc3ccc(Cl)c(F)c3)(C1)C2 [Compound 541, N-{3-[2-(4-chloro-3-fluorophenoxy)acetamido]bicyclo[1.1.1]pentan-1-yl}-5-methyl-1,3-thiazole-4-carboxamide] | 1 to 2
CN(C)Cc1ccccc1C(=O)NC12CC(NC(=O)COc3ccc(Cl)c(F)c3)(C1)C2 [Compound 542, N-{3-[2-(4-chloro-3-fluorophenoxy)acetamido]bicyclo[1.1.1]pentan-1-yl}-2-[(dimethylamino)methyl]benzamide] | > 2
CCN(CC)c1cccc(C(=O)NC23CC(NC(=O)COc4ccc(Cl)c(F)c4)(C2)C3)c1 [Compound 543, N-{3-[2-(4-chloro-3-fluorophenoxy)acetamido]bicyclo[1.1.1]pentan-1-yl}-3-(diethylamino)benzamide] | > 2
O=C(COc1ccc(Cl)c(F)c1)NC12CC(NC(=O)c3coc(C(F)(F)F)c3)(C1)C2 [Compound 544, N-{3-[2-(4-chloro-3-fluorophenoxy)acetamido]bicyclo[1.1.1]pentan-1-yl}-5-(trifluoromethyl)furan-3-carboxamide] | < 0.05
Cc1ccoc1C(=O)NC12CC(NC(=O)COc3ccc(Cl)c(F)c3)(C1)C2 [Compound 545, N-{3-[2-(4-chloro-3-fluorophenoxy)acetamido]bicyclo[1.1.1]pentan-1-yl}-3-methylfuran-2-carboxamide] | 0.25 to 1
CN(C)Cc1ccc(C(=O)NC23CC(NC(=O)COc4ccc(Cl)c(F)c4)(C2)C3)cc1 [Compound 546, N-{3-[2-(4-chloro-3-fluorophenoxy)acetamido]bicyclo[1.1.1]pentan-1-yl}-4-[(dimethylamino)methyl]benzamide] | > 2
COc1c(F)cccc1C(=O)NC12CC(NC(=O)COc3ccc(Cl)c(F)c3)(C1)C2 [Compound 547, N-{3-[2-(4-chloro-3-fluorophenoxy)acetamido]bicyclo[1.1.1]pentan-1-yl}-3-fluoro-2-methoxybenzamide] | 1 to 2
COc1ccsc1C(=O)NC12CC(NC(=O)COc3ccc(Cl)c(F)c3)(C1)C2 [Compound 548, N-{3-[2-(4-chloro-3-fluorophenoxy)acetamido]bicyclo[1.1.1]pentan-1-yl}-3-methoxythiophene-2-carboxamide] | > 2
CN(C)CCOc1ccccc1C(=O)NC12CC(NC(=O)COc3ccc(Cl)c(F)c3)(C1)C2 [Compound 549, N-{3-[2-(4-chloro-3-fluorophenoxy)acetamido]bicyclo[1.1.1]pentan-1-yl}-2-[2-(dimethylamino)ethoxy]benzamide] | > 2
COCc1ccccc1C(=O)NC12CC(NC(=O)COc3ccc(Cl)c(F)c3)(C1)C2 [Compound 550, N-{3-[2-(4-chloro-3-fluorophenoxy)acetamido]bicyclo[1.1.1]pentan-1-yl}-2-(methoxymethyl)benzamide] | 1 to 2
CCOc1ccsc1C(=O)NC12CC(NC(=O)COc3ccc(Cl)c(F)c3)(C1)C2 [Compound 551, N-{3-[2-(4-chloro-3-fluorophenoxy)acetamido]bicyclo[1.1.1]pentan-1-yl}-3-ethoxythiophene-2-carboxamide] | 0.05 to 0.25
COCc1ccc(C(=O)NC23CC(NC(=O)COc4ccc(Cl)c(F)c4)(C2)C3)cc1 [Compound 552, N-{3-[2-(4-chloro-3-fluorophenoxy)acetamido]bicyclo[1.1.1]pentan-1-yl}-4-(methoxymethyl)benzamide] | 0.05 to 0.25
CN(C)Cc1cccc(C(=O)NC23CC(NC(=O)COc4ccc(Cl)c(F)c4)(C2)C3)c1 [Compound 553, N-{3-[2-(4-chloro-3-fluorophenoxy)acetamido]bicyclo[1.1.1]pentan-1-yl}-3-[(dimethylamino)methyl]benzamide] | > 2
CCc1nc(C(=O)NC23CC(NC(=O)COc4ccc(Cl)c(F)c4)(C2)C3)cs1 [Compound 554, N-{3-[2-(4-chloro-3-fluorophenoxy)acetamido]bicyclo[1.1.1]pentan-1-yl}-2-ethyl-1,3-thiazole-4-carboxamide] | < 0.05
